Results as given in ChEMBL document CHEMBL3352299, “Antiproliferative 4-(1,2,4-oxadiazol-5-yl)piperidine-1-carboxamides, a new tubulin inhibitor chemotype” (Bioorg Med Chem Lett, 2014).

Columns and labels:
DU-145 [1] = assay: Antiproliferative activity against human DU145 cells at 50 uM after 3 days by fluorescence assay; assay type: functional; details: DU-145, 72 h, read-out: GI
DU-145 [2] = assay: Antiproliferative activity against human DU145 cells after 3 days by fluorescence assay; assay type: functional; details: DU-145, 72 h
K562 [3] = assay: Induction of mitotic arrest in human K562 cells assessed as mitotic indices at 5 uM by light microscopy; assay type: functional
Tubulin = assay: Displacement of [3H]-colchicine from tubulin (unknown origin) after 10 mins by turbidimetrically; assay type: protein-complex assay, Homo sapiens
K562 [4] = assay: Induction of mitotic arrest in human K562 cells assessed as growth inhibition by light microscopy; assay type: functional, cell-based

| GI50 (DU-145 [2]) | Compound | inhibition of growth at 50 µM (DU-145 [1]) | further results |
| --- | --- | --- | --- |
| – | O=C(N1CCC(c2nc(-c3ccc(F)cc3)no2)CC1)N1CCCc2ccccc21 | < 20% | – |
| 940 nM | Cc1cc(CNC(=O)N2CCC(c3nc(-c4ccc(F)cc4)no3)CC2)nn1C | – | – |
| 17000 nM | CN(Cc1ccco1)C(=O)N1CCC(c2nc(-c3ccc(F)cc3)no2)CC1 | – | – |
| 650 nM | O=C(NCc1ccsc1)N1CCC(c2nc(-c3ccc(F)cc3)no2)CC1 | – | – |
| 13600 nM | O=C(NCCc1ccccc1)N1CCC(c2nc(-c3ccc(F)cc3)no2)CC1 | – | – |
| – | CC(C)(C)NC(=O)N1CCC(c2nc(-c3ccc(F)cc3)no2)CC1 | < 20% | – |
| 3300 nM | O=C(NCc1ccco1)N1CCC(c2nc(-c3ccc(F)cc3)no2)CC1 | – | – |
| 6500 nM | O=C(NCc1ccsc1)N1CCC(c2nc(Cc3ccccc3)no2)C1 (centres undefined) | – | – |
| – | CC(C)Cc1noc(C2CCN(C(=O)NCc3ccccc3)CC2)n1 | < 20% | – |
| 4400 nM | COc1cc(OC)cc(-c2noc(C3CCN(C(=O)NCc4ccccc4)CC3)n2)c1 | – | – |
| 11200 nM | O=C(NCc1ccccc1)N1CCC(c2nc(CCN3CCOCC3)no2)CC1 | – | – |
| – | O=C(N1CCCCC1)N1CCC(c2nc(-c3ccc(F)cc3)no2)CC1 | < 20% | – |
| – | COCCNC(=O)N1CCC(c2nc(-c3ccc(F)cc3)no2)CC1 | < 20% | – |
| 8600 nM | O=C(NCc1ccccc1)N1CCC(c2nc(CCN3CCc4ccccc4C3)no2)CC1 | – | – |
| 1900 nM | O=C(NCc1ccccc1)N1CCC(c2nc(-c3ccccc3)no2)CC1 | – | Activity (K562 [3]): 75%; IC50 (Tubulin): 1800 nM; IC50 (K562 [4]): 1500 nM |
| – | O=C(NCc1ccsc1)N1CCCCC1c1nc(Cc2ccccc2)no1 (centres undefined) | < 20% | – |
| 760 nM | O=C(NCc1ccccc1)N1CCC(c2nc(Cc3ccccc3)no2)CC1 | – | – |
| – | O=C(N1CCC(c2nc(-c3ccc(F)cc3)no2)CC1)N1CCc2ccccc21 | < 20% | – |
| 2200 nM | Cc1ccc(-c2noc(C3CCN(C(=O)NCc4ccco4)CC3)n2)cc1 | – | IC50 (Tubulin): 2300 nM |
| 2700 nM | O=C(NCc1ccco1)N1CCC(c2nc(-c3ccc(Cl)cc3)no2)CC1 | – | IC50 (Tubulin): 2000 nM |
| 12300 nM | Cc1ccccc1-c1noc(C2CCN(C(=O)NCc3ccccc3)CC2)n1 | – | – |
| 1300 nM | O=C(NCc1ccc2c(c1)OCO2)N1CCC(c2nc(-c3ccc(F)cc3)no2)CC1 | – | – |
| 1100 nM | O=C(NCc1ccoc1)N1CCC(c2nc(-c3ccc(F)cc3)no2)CC1 | – | – |

| GI50 (DU-145 [2]) | Compound | inhibition of growth at 50 µM (DU-145 [1]) | further results |
| --- | --- | --- | --- |
| 6000 nM | O=C(NCc1ccco1)N1CCC(c2nc(-c3ccccc3)no2)CC1 | – | – |
| 1700 nM | O=C(NCc1ccsc1)N1CCC(c2nc(COc3ccccc3)no2)CC1 | – | – |
| – | O=C(NCc1ccsc1)N1CCCC(c2nc(Cc3ccccc3)no2)C1 (centres undefined) | < 20% | – |
| 2900 nM | O=C(NCc1ccccc1)N1CCC(c2nc(-c3ccc(F)cc3Cl)no2)CC1 | – | – |
| 9800 nM | O=C(NCCc1c[nH]c2ccccc12)N1CCC(c2nc(-c3ccc(F)cc3)no2)CC1 | – | – |
| 120 nM | O=C(NCc1ccsc1)N1CCC(c2nc(Cc3ccccc3)no2)CC1 | – | – |
| – | Cc1noc(C2CCN(C(=O)NCc3ccccc3)CC2)n1 | < 20% | – |
| 2800 nM | O=C(NCc1ccccc1)N1CCC(c2nc(-c3ccc(F)cc3)no2)CC1 | – | Activity (K562 [3]): 72%; IC50 (Tubulin): 1600 nM; IC50 (K562 [4]): 1200 nM |
| – | CCCCNC(=O)N1CCC(c2nc(-c3ccc(F)cc3)no2)CC1 | < 20% | – |
| 950 nM | Cc1cc(CNC(=O)N2CCC(c3nc(Cc4ccccc4)no3)CC2)nn1C | – | – |
| – | COC(=O)CNC(=O)N1CCC(c2nc(-c3ccc(F)cc3)no2)CC1 | < 20% | – |
| 2800 nM | Cc1cc(CNC(=O)N2CCC(c3nc(COc4ccccc4)no3)CC2)nn1C | – | – |
| – | C#CCNC(=O)N1CCC(c2nc(-c3ccc(F)cc3)no2)CC1 | < 20% | – |
| 1700 nM | O=C(NCc1cccs1)N1CCC(c2nc(-c3ccc(F)cc3)no2)CC1 | – | – |
| – | O=C(N1CCOCC1)N1CCC(c2nc(-c3ccc(F)cc3)no2)CC1 | < 20% | – |
| 9500 nM | COc1cccc(NC(=O)N2CCC(c3nc(-c4ccc(Cl)cc4)no3)CC2)c1 | – | IC50 (Tubulin): 5300 nM |
| 1200 nM | Cc1cccc(-c2noc(C3CCN(C(=O)NCc4ccccc4)CC3)n2)c1 | – | – |
| – | O=C(NCc1ccsc1)N1CCCC1c1nc(Cc2ccccc2)no1 (centres undefined) | < 20% | – |
| – | O=C(NCC1CC1)N1CCC(c2nc(-c3ccc(F)cc3)no2)CC1 | < 20% | – |
| 1600 nM | Cc1ccc(-c2noc(C3CCN(C(=O)NCc4ccccc4)CC3)n2)cc1 | – | Activity (K562 [3]): 83%; IC50 (Tubulin): 1100 nM; IC50 (K562 [4]): 550 nM |
| 520 nM | O=C(NCc1ccccc1)N1CCC(c2nc(COc3ccccc3)no2)CC1 | – | – |
| 9300 nM | O=C(NCc1ccccc1)N1CCC(c2nc(-c3ccccc3Cl)no2)CC1 | – | IC50 (Tubulin): 2600 nM |
| 21000 nM | O=C(N1CCC(c2nc(-c3ccc(F)cc3)no2)CC1)N1CCc2ccccc2C1 | – | – |
